From the NIST ThermoML archive (doi:10.1007/s10765-007-0223-x)
± gives the expanded uncertainty stated by the source.

Assay: xn = mol fraction of the nth substance listed
Conditions: 101 kPa, Liquid; for speed of sound: Single path-length method

COC(C)(C)C [2-methoxy-2-methylpropane] + Cc1ccccc1
Conditions | mass density [kg/m3] | speed of sound [m/s]
305.65 K, x1 = 0.053 | 848.195 ± 0.42 | –
305.65 K, x1 = 0.116 | 840.022 ± 0.43 | –
305.65 K, x1 = 0.199 | 829.282 ± 0.45 | –
305.65 K, x1 = 0.301 | 816.062 ± 0.47 | –
305.65 K, x1 = 0.371 | 807.159 ± 0.48 | –
305.65 K, x1 = 0.463 | 795.249 ± 0.49 | –
305.65 K, x1 = 0.61 | 776.592 ± 0.52 | –
305.65 K, x1 = 0.688 | 766.747 ± 0.54 | –
305.65 K, x1 = 0.797 | 752.961 ± 0.56 | –
305.65 K, x1 = 0.902 | 739.7 ± 0.57 | –
305.65 K, x1 = 0.943 | 734.343 ± 0.58 | –
305.65 K, x1 = 1 | 726.444 ± 0.58 | –
308.15 K, x1 = 0.053 | 845.842 ± 0.42 | 1245.8 ± 2.1
308.15 K, x1 = 0.116 | 837.654 ± 0.43 | 1228.3 ± 2.1
308.15 K, x1 = 0.199 | 826.891 ± 0.45 | 1207.5 ± 2.1
308.15 K, x1 = 0.301 | 813.64 ± 0.47 | 1180.9 ± 2.1
308.15 K, x1 = 0.371 | 804.72 ± 0.48 | 1161.8 ± 2.1
308.15 K, x1 = 0.463 | 792.78 ± 0.5 | 1137.8 ± 2.1
308.15 K, x1 = 0.61 | 774.07 ± 0.52 | 1098.8 ± 2.1
308.15 K, x1 = 0.688 | 764.201 ± 0.54 | 1077.9 ± 2.1
308.15 K, x1 = 0.797 | 750.369 ± 0.56 | 1049 ± 2.1
308.15 K, x1 = 0.902 | 737.069 ± 0.58 | 1020.4 ± 2.1
308.15 K, x1 = 0.943 | 731.692 ± 0.59 | 1008 ± 2.1
308.15 K, x1 = 1 | 723.763 ± 0.58 | 990.99 ± 2.1
310.65 K, x1 = 0.053 | 843.486 ± 0.43 | 1235.2 ± 2.1
310.65 K, x1 = 0.116 | 835.279 ± 0.44 | 1217.6 ± 2.1
310.65 K, x1 = 0.199 | 824.494 ± 0.45 | 1196.7 ± 2.1
310.65 K, x1 = 0.301 | 811.214 ± 0.47 | 1170.1 ± 2.1
310.65 K, x1 = 0.371 | 802.273 ± 0.48 | 1150.9 ± 2.1
310.65 K, x1 = 0.463 | 790.303 ± 0.5 | 1126.8 ± 2.1
310.65 K, x1 = 0.61 | 771.541 ± 0.53 | 1087.7 ± 2.1
310.65 K, x1 = 0.688 | 761.642 ± 0.54 | 1066.9 ± 2.1
310.65 K, x1 = 0.797 | 747.769 ± 0.56 | 1037.9 ± 2.1
310.65 K, x1 = 0.902 | 734.423 ± 0.58 | 1009.1 ± 2.1
310.65 K, x1 = 0.943 | 729.029 ± 0.59 | 996.73 ± 2.1
310.65 K, x1 = 1 | 721.069 ± 0.59 | 979.62 ± 2.1
313.15 K, x1 = 0.053 | 841.124 ± 0.43 | 1224.5 ± 2.1
313.15 K, x1 = 0.116 | 832.902 ± 0.44 | 1207 ± 2.1
313.15 K, x1 = 0.199 | 822.092 ± 0.46 | 1186 ± 2.1
313.15 K, x1 = 0.301 | 808.78 ± 0.47 | 1159.3 ± 2.1
313.15 K, x1 = 0.371 | 799.819 ± 0.49 | 1140.1 ± 2.1
313.15 K, x1 = 0.463 | 787.815 ± 0.51 | 1115.9 ± 2.1
313.15 K, x1 = 0.61 | 769.004 ± 0.53 | 1076.7 ± 2.1
313.15 K, x1 = 0.688 | 759.075 ± 0.55 | 1055.9 ± 2.1
313.15 K, x1 = 0.797 | 745.157 ± 0.57 | 1026.8 ± 2.1
313.15 K, x1 = 0.902 | 731.765 ± 0.59 | 997.95 ± 2.1
313.15 K, x1 = 0.943 | 726.353 ± 0.6 | 985.49 ± 2.1
313.15 K, x1 = 1 | 718.357 ± 0.59 | 968.16 ± 2.1
315.65 K, x1 = 0.053 | 838.757 ± 0.43 | 1214 ± 2.1
315.65 K, x1 = 0.116 | 830.517 ± 0.45 | 1196.4 ± 2.1
315.65 K, x1 = 0.199 | 819.682 ± 0.46 | 1175.3 ± 2.1
315.65 K, x1 = 0.301 | 806.341 ± 0.48 | 1148.5 ± 2.1
315.65 K, x1 = 0.371 | 797.359 ± 0.49 | 1129.3 ± 2.1
315.65 K, x1 = 0.463 | 785.32 ± 0.51 | 1105 ± 2.1
315.65 K, x1 = 0.61 | 766.457 ± 0.54 | 1065.8 ± 2.1
315.65 K, x1 = 0.688 | 756.499 ± 0.55 | 1044.9 ± 2.1
315.65 K, x1 = 0.797 | 742.532 ± 0.57 | 1015.6 ± 2.1
315.65 K, x1 = 0.902 | 729.096 ± 0.59 | 986.8 ± 2.1
315.65 K, x1 = 0.943 | 723.661 ± 0.6 | 974.25 ± 2.1
315.65 K, x1 = 1 | 715.636 ± 0.6 | 956.8 ± 2.1
318.15 K, x1 = 0.053 | 836.384 ± 0.44 | 1203.4 ± 2.1
318.15 K, x1 = 0.116 | 828.127 ± 0.45 | 1185.8 ± 2.1
318.15 K, x1 = 0.199 | 817.267 ± 0.46 | 1164.7 ± 2.1
318.15 K, x1 = 0.301 | 803.893 ± 0.48 | 1137.8 ± 2.1
318.15 K, x1 = 0.371 | 794.887 ± 0.49 | 1118.5 ± 2.1
318.15 K, x1 = 0.463 | 782.821 ± 0.51 | 1094.2 ± 2.1
318.15 K, x1 = 0.61 | 763.899 ± 0.54 | 1054.8 ± 2.1
318.15 K, x1 = 0.688 | 753.908 ± 0.55 | 1033.8 ± 2.1
318.15 K, x1 = 0.797 | 739.897 ± 0.57 | 1004.6 ± 2.1
318.15 K, x1 = 0.902 | 726.409 ± 0.59 | 975.59 ± 2.1
318.15 K, x1 = 0.943 | 720.958 ± 0.6 | 963 ± 2.1
318.15 K, x1 = 1 | 712.897 ± 0.6 | 945.54 ± 2.1
320.65 K, x1 = 0.053 | 834.008 ± 0.44 | 1192.9 ± 2.1
320.65 K, x1 = 0.116 | 825.73 ± 0.45 | 1175.2 ± 2.1
320.65 K, x1 = 0.199 | 814.847 ± 0.47 | 1154.1 ± 2.1
320.65 K, x1 = 0.301 | 801.438 ± 0.49 | 1127 ± 2.1
320.65 K, x1 = 0.371 | 792.407 ± 0.5 | 1107.7 ± 2.1
320.65 K, x1 = 0.463 | 780.31 ± 0.52 | 1083.4 ± 2.1
320.65 K, x1 = 0.61 | 761.327 ± 0.54 | 1043.8 ± 2.1
320.65 K, x1 = 0.688 | 751.303 ± 0.56 | 1022.8 ± 2.1
320.65 K, x1 = 0.797 | 737.246 ± 0.58 | 993.5 ± 2.1
320.65 K, x1 = 0.902 | 723.713 ± 0.6 | 964.4 ± 2.1
320.65 K, x1 = 0.943 | 718.237 ± 0.61 | 951.77 ± 2.1
320.65 K, x1 = 1 | 710.141 ± 0.6 | 934.24 ± 2.1
323.15 K, x1 = 0.053 | 831.624 ± 0.44 | 1182.4 ± 2.1
323.15 K, x1 = 0.116 | 823.329 ± 0.46 | 1164.6 ± 2.1
323.15 K, x1 = 0.199 | 812.42 ± 0.47 | 1143.5 ± 2.1
323.15 K, x1 = 0.301 | 798.979 ± 0.49 | 1116.4 ± 2.1
323.15 K, x1 = 0.371 | 789.92 ± 0.5 | 1097 ± 2.1
323.15 K, x1 = 0.463 | 777.787 ± 0.52 | 1072.5 ± 2.1
323.15 K, x1 = 0.61 | 758.745 ± 0.55 | 1032.9 ± 2.1
323.15 K, x1 = 0.688 | 748.686 ± 0.56 | 1011.9 ± 2.1
323.15 K, x1 = 0.797 | 734.592 ± 0.58 | 982.48 ± 2.1
323.15 K, x1 = 0.902 | 721 ± 0.6 | 953.28 ± 2.1
323.15 K, x1 = 0.943 | 715.503 ± 0.61 | 940.59 ± 2.1
323.15 K, x1 = 1 | 707.381 ± 0.61 | 922.97 ± 2.1
